Results published in patent US20100331297A1, “MODULATION OF PROTEIN TRAFFICKING” (FOLDRX PHARMACEUTICALS, INC., priority 2007, published 2010).

Legend:
[1] = molecular target: T1, ΔF508 CFTR (Homo sapiens, UniProt P13569, DEL508-508); assay: Corrector activity, YFP halide (iodide) quenching assay in FRT cells expressing ΔF508 CFTR; assay type: cell-based; set-up: expressed in transfected cells; host or cells: Fischer rat thyroid (FRT) cells; conditions: FRT cells ΔF508 CFTR/YFP, 24 hours with compound at 37° C., forskolin and genistein; read-out: Corrector EC50
How it was run: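 FRT cells co-expressing ΔF508 CFTR and halide-sensitive YFP were incubated 24 h at 37° C with compounds, then stimulated 30 min at 37° C in PBS with forskolin and genistein. Endpoint fluorescence after iodide injection was normalized to initial reading; EC50 from 4-parameter fit with bottom constrained to DMSO control.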

[2] = molecular target: T1, ΔF508 CFTR; assay: Potentiator activity, YFP halide (iodide) quenching assay in FRT cells expressing ΔF508 CFTR, 27° C. pre-incubation; assay type: cell-based; set-up: expressed in transfected cells; host or cells: Fischer rat thyroid (FRT) cells; conditions: FRT cells ΔF508 CFTR/YFP, 24 hours at 27° C., compound with forskolin 30 min
How it was run: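 FRT cells stably co-expressing ΔF508 CFTR and halide-sensitive YFP, grown 24 h at 37° C. then 24 h at 27° C. to raise surface CFTR. Compounds in PBS with forskolin, 30 min at 37° C.; iodide injected and YFP quenching (ex 485/em 530 nm) followed. EC50 from normalized endpoint fluorescence.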

T1 sequence (P13569 with tags, fused parts or gaps DEL508-508): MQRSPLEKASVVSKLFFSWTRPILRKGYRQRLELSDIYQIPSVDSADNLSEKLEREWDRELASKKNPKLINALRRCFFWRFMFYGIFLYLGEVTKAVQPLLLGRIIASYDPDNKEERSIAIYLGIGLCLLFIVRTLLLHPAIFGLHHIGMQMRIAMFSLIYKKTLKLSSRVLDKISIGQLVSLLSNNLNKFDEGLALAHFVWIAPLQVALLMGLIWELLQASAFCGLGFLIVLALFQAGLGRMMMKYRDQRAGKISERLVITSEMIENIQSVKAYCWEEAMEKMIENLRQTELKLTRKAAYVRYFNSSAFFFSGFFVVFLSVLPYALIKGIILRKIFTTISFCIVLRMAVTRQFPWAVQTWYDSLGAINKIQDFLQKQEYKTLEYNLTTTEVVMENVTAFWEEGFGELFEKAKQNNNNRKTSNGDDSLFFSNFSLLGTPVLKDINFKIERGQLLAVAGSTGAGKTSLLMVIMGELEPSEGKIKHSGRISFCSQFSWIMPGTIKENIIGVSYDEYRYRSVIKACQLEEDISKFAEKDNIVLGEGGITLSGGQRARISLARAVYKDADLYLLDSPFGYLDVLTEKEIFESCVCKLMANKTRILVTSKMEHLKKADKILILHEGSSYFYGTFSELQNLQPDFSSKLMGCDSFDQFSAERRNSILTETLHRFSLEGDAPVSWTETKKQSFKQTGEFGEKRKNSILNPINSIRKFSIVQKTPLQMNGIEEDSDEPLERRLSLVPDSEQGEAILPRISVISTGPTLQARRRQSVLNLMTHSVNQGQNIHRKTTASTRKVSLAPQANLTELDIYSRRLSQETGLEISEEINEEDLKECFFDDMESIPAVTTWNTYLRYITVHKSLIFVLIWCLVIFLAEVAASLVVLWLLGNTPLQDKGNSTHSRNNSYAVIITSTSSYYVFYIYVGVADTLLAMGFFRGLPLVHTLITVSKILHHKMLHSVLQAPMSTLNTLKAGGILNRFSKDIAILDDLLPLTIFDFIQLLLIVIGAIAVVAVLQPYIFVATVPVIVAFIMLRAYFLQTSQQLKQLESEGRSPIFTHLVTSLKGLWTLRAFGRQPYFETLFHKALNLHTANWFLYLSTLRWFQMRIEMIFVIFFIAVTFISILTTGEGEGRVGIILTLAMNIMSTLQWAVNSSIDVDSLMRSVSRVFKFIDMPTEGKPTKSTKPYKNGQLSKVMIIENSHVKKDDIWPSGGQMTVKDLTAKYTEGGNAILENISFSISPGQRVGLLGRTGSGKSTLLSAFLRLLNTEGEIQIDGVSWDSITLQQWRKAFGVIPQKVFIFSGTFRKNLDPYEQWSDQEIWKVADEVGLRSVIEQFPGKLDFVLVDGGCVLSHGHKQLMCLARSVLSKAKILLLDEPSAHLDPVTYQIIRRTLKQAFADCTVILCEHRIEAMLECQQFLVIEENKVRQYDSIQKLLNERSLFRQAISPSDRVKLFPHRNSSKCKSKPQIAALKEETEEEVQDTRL

| SMILES | EC50 [1] | EC50 [2] |
| --- | --- | --- |
| CC(C)(C)n1nc(Oc2cccnc2)c2c(N)ncnc21 [compound 183] | > 15 µM | > 15 µM |
| CN(c1ccccc1)c1nn(C2CCC2)c2ncnc(N)c12 [compound 314] | > 15 µM | > 15 µM |
| Nc1ncnc2c1c(-c1ccc(Cl)cc1)cn2CC(F)F [compound 290] | < 2 µM | 2 to 5 µM |
| CCn1nc(Sc2cccc(Cl)c2)c2c(N)ncnc21 [compound 226] | > 15 µM | < 2 µM |
| CC(C)(C)n1nc(Oc2cccc(C#N)c2)c2c(N)ncnc21 [compound 201] | 5 to 10 µM | 5 to 10 µM |
| CC(C)(C)n1nc(Sc2ccccc2)c2c(N)ncnc21 [compound 172] | > 15 µM | < 2 µM |
| CCOC(=O)N1CC(n2nc(Sc3ccccc3)c3c(N)ncnc32)C1 [compound 347] | > 15 µM | > 15 µM |
| CC(C)(C)OC(=O)N1CC(n2nc(Oc3ccccc3)c3c(N)ncnc32)C1 [Compound No. 341, 3-(4-Amino-3-phenoxy-pyrazolo[3,4-d]pyrimidin-1-yl)-azetidine-1-carboxylic acid tert-butyl ester] | > 15 µM | 5 to 10 µM |
| Cc1cccc(Oc2nn(C(C)(C)C)c3ncnc(N)c23)c1C [compound 167] | > 15 µM | < 2 µM |
| CCn1cc(-c2ccc(Cl)cc2)c2c(NC(=O)c3ccccc3)ncnc21 [compound 272] | < 2 µM | > 15 µM |
| CC(=O)N(C(C)=O)c1ncnc2c1c(-c1ccc(Cl)cc1)nn2C(C)(C)C [Compound No. 97] | 2 to 5 µM | 2 to 5 µM |
| CCn1nc(-c2ccc(N=[N+]=[N-])cc2)c2c(N)ncnc21 [compound 170] | 5 to 10 µM | > 15 µM |
| CC(=O)N1CC(n2nc(Sc3cccc(Cl)c3)c3c(N)ncnc32)C1 [compound 344] | > 15 µM | > 15 µM |
| CC(C)(C)n1nc(-c2ccc(Cl)cc2)c2c(NC(=O)N3CCCCC3)ncnc21 [compound 273] | > 15 µM | > 15 µM |
| CC(C)(C)n1nc(-c2ccc(Cl)cc2)c2c(NC(=O)O[C@H]3CCOC3)ncnc21 [Compound No. 301, [1-tert-Butyl-3-(4-chloro-phenyl)-1H-pyrazolo[3,4-d]pyrimidin-4-yl]-carbamic acid tetrahydro-furan-3-yl ester] | 5 to 10 µM | < 2 µM |
| Nc1ncnc2[nH]nc(Oc3cccc(Cl)c3)c12 [Compound No. 220, 3-(3-Chloro-phenoxy)-1H-pyrazolo[3,4-d]pyrimidin-4-ylamine] | > 15 µM | > 15 µM |
| CCn1nc([S+]([O-])c2cc(F)cc(F)c2)c2c(N)ncnc21 (stereo not drawn) [compound 283] | > 15 µM | > 15 µM |
| CCn1nc(Sc2ccccc2Cl)c2c(N)ncnc21 [compound 227] | > 15 µM | > 15 µM |
| Nc1ncnc2c1c(-c1ccc(Cl)cc1)cn2CC(O)CF (stereo not drawn) [compound 309] | 2 to 5 µM | > 15 µM |

| SMILES | EC50 [1] | EC50 [2] |
| --- | --- | --- |
| CCn1cc(-c2ccc(Cl)cc2)c2c(NC(=O)c3ccc(F)cc3)ncnc21 [compound 299] | < 2 µM | > 15 µM |
| CCn1nc([S+]([O-])c2cccc(Cl)c2)c2c(N)ncnc21 (stereo not drawn) [compound 279] | > 15 µM | > 15 µM |
| CCn1nc([S+]([O-])c2ccccn2)c2c(N)ncnc21 (stereo not drawn) [compound 353] | > 15 µM | 5 to 10 µM |
| CC(C)(C)n1nc(Oc2cccc(F)c2)c2c(N)ncnc21 [compound 200] | > 15 µM | < 2 µM |
| Cc1ccc(Oc2nn(C(C)(C)C)c3ncnc(N)c23)cc1C [compound 177] | > 15 µM | < 2 µM |
| Cc1cccc(-c2nn(C(C)(C)C)c3ncnc(N)c23)c1 [compound 104] | > 15 µM | 2 to 5 µM |
| CC(C)(C)OC(=O)N1CC(n2nc(-c3ccc(Cl)cc3)c3c(N)ncnc32)C1 [Compound No. 267, 3-[4-Amino-3-(4-chloro-phenyl)-pyrazolo[3,4-d]pyrimidin-1-yl]-azetidine-1-carboxylic acid tert-butyl ester] | > 15 µM | 2 to 5 µM |
| CC(C)N1CC(n2nc(-c3ccc(Cl)cc3)c3c(N)ncnc32)C1 [Compound No. 304, 3-(4-Chloro-phenyl)-1-(1-isopropyl-azetidin-3-yl)-1H-pyrazolo[3,4-d]pyrimidin-4-ylamine] | 5 to 10 µM | > 15 µM |
| CCn1nc(Sc2cccc(C)c2)c2c(N)ncnc21 [compound 218] | 5 to 10 µM | < 2 µM |
| CC(C)(C)n1nc(-c2ccc(Cl)cc2)c2c(NS(C)(=O)=O)ncnc21 [Compound No. 274, N-[1-tert-Butyl-3-(4-chloro-phenyl)-1H-pyrazolo[3,4-d]pyrimidin-4-yl]-methanesulfonamide] | 2 to 5 µM | > 15 µM |
| CCn1nc(N(C)c2cccc(Cl)c2)c2c(N)ncnc21 [compound 317] | > 15 µM | > 15 µM |
| CCn1nc(Sc2cc(F)cc(F)c2)c2c(N)ncnc21 [compound 264] | > 15 µM | 2 to 5 µM |
| CC(C)(C)n1nc(Oc2ccccc2F)c2c(N)ncnc21 [compound 197] | 5 to 10 µM | < 2 µM |
| O=[N+]([O-])c1ccc(Nc2ncnc3[nH]nc(-c4ccc(Cl)cc4)c23)nc1 [compound 293] | > 15 µM | > 15 µM |
| Nc1ncnc2c1c(-c1ccc(Cl)cc1)cn2CC1CC1 [Compound No. 242, 5-(4-Chloro-phenyl)-7-cyclopropylmethyl-7H-pyrrolo[2,3-d]pyrimidin-4-ylamine] | < 2 µM | 2 to 5 µM |
| CC(C)(C)n1nc(Oc2cccc(-c3ccccc3)c2)c2c(N)ncnc21 [compound 190] | 5 to 10 µM | > 15 µM |
| Nc1ncnc2c1c(-c1ccc(Cl)cc1)cn2C1CCC1 [compound 257] | < 2 µM | < 2 µM |
| CC(C)(C)n1nc(Oc2cccc(Oc3ccccc3)c2)c2c(N)ncnc21 [compound 189] | > 15 µM | < 2 µM |
| CC(C)(C)n1nc(Oc2cccc(Cl)c2)c2c(NC(=O)c3ccccc3)ncnc21 [Compound No. 332, N-[1-tert-Butyl-3-(3-chloro-phenoxy)-1H-pyrazolo[3,4-d]pyrimidin-4-yl]-benzamide] | > 15 µM | < 2 µM |

| SMILES | EC50 [1] | EC50 [2] |
| --- | --- | --- |
| CC(C)(C)OC(=O)n1nc(Sc2cccc(Cl)c2)c2c(N)ncnc21 [compound 343] | > 15 µM | < 2 µM |
| CCn1nc(Nc2ccc3c(c2)OC(F)(F)O3)c2c(N)ncnc21 [compound 313] | > 15 µM | 2 to 5 µM |
| CC(C)OC(=O)Nc1ncnc2c1c(-c1ccc(Cl)cc1)nn2C(C)(C)C [compound 300] | 5 to 10 µM | > 15 µM |
| CC(C)(C)n1nc(Oc2ccccn2)c2c(N)ncnc21 [compound 330] | > 15 µM | > 15 µM |
| CC(C)(C)n1nc(S(=O)(=O)c2ccccc2)c2c(N)ncnc21 [compound 191, 3-Benzenesulfonyl-1-tert-butyl-1H-pyrazolo[3,4-d]pyrimidin-4-ylamine] | > 15 µM | 5 to 10 µM |
| Nc1ncnc2c1c(-c1ccc(Cl)cc1)cn2CC1CCC1 [compound 262] | 2 to 5 µM | 2 to 5 µM |
| CN1CC[C@@H](n2nc(-c3ccc(Cl)cc3)c3c(N)ncnc32)C1 [Compound No. 356, 3-(4-Chloro-phenyl)-1-(1-methyl-pyrrolidin-3-yl)-1H-pyrazolo[3,4-d]pyrimidin-4-ylamine] | < 2 µM | > 15 µM |
| CCn1nc(Sc2ccccn2)c2c(N)ncnc21 [compound 324] | > 15 µM | > 15 µM |
| COc1nn(C(C)(C)C)c2ncnc(N)c12 [compound 312, 1-tert-butyl-3-methoxy-1H-pyrazolo[3,4-d]pyrimidin-4-ylamine] | > 15 µM | 5 to 10 µM |
| CC(C)(C)n1nc(-c2ccc(Cl)cc2)c2c(NC(=O)C3CCCC3)ncnc21 [compound 266] | 5 to 10 µM | < 2 µM |
| CC(=O)N1CC(n2cc(Cc3cccc4ccccc34)c3c(N)ncnc32)C1 [compound 306] | > 15 µM | > 15 µM |
| Cc1ccc(F)c(Oc2nn(C(C)(C)C)c3ncnc(N)c23)c1 [compound 206] | > 15 µM | > 15 µM |
| CC(=O)C1CC(n2nc(Sc3ccccc3)c3c(N)ncnc32)C1 (stereo not drawn) [compound 334] | > 15 µM | > 15 µM |
| CC(C)(C)C(=O)Nc1ncnc2c1c(-c1ccc(Cl)cc1)cn2C(C)(C)C [compound 349] | 2 to 5 µM | 2 to 5 µM |
| CC(C)(C)n1nc(Oc2ccc(F)c(Cl)c2)c2c(N)ncnc21 [compound 176] | > 15 µM | < 2 µM |
| CC(C)(C)Cn1cc(-c2ccc(Cl)cc2)c2c(N)ncnc21 [compound 316] | 5 to 10 µM | 2 to 5 µM |
| Nc1ncnc2c1c(Oc1cccc(Cl)c1)nn2-c1ncccn1 [compound 287] | > 15 µM | > 15 µM |
| CCC(=O)Nc1ncnc2c1c(-c1ccc(Cl)cc1)cn2CC [compound 271] | < 2 µM | 5 to 10 µM |
| CCn1cc(Sc2ccccc2)c2c(N)ncnc21 [Compound No. 333, 7-Ethyl-5-phenylsulfanyl-7H-pyrrolo[2,3-d]pyrimidin-4-ylamine] | 2 to 5 µM | < 2 µM |
